This note sets out measurements from patent EP0353668A2, “Process for the preparation of N,N-bis(alkoxyalkyl) diamides of pyridine-2,4-dicarboxylic acid” (HOECHST AKTIENGESELLSCHAFT, priority 1988, dated 1990).

The structures appear in SMILES notation.

The nature of this data set: in vivo. More on the design: species or system Wistarratten. As for the experimental part:
Es wurde festgestellt, daß die Verbindungen der Formel I außergewöhnlich gute enterale Resorbierbarkeiten aufweisen. Die Resorbierbarkeit wurde an Wistarratten untersucht, denen N,N′-Bis-(2-methoxy ethyl)pyridin-2,4-dicarbonsäureamid intragastral verabreicht wurde. Der Serumspiegel sank in den ersten Stunden nach Verabreichung der Substanz ab und ereichte nach ca. 5 Stunden ein nur noch leicht abfallendes Platteau.
Weibliche Wistarratten von ca. 150 g Körpergewicht erhalten 50 mg/kg N,N′-Bis(2-methoxyethyl)pyridin-2,4-dicarbonsäurediamid mittels Schlundsonde intragastral verabreicht. Es werden nach 0; 0,25; 0,5; 1; 3; 4; 5; 6; 8 und 14 Stunden jeweils 4 Ratten narkotisiert und über die Vena Cava entblutet. Das Blut wird sofort zentrifugiert und N,N′-Bis(2-methoxyethyl)pyridin-2,4-dicarbonsäurediamid mit Ether aus dem Serum extrahiert. Nach Verdampfen des Ethers wird der Rückstand in […] Fliessmittel aufgenommen. Das Fliessmittel besteht aus 0,05 M Phosphorsäure und Acetonitril (4:1). Von dieser Probe werden 50 µl in eine HPLC-Säule injiziert. Die Detektion erfolgt bei UV 200 nm und einer Retentionszeit von 2,2 min. Die Ergebnisse sind in der Tabelle 1 und der Figur 1 dokumentiert. Tabelle 1

Take `COCCNC(=O)c1ccnc(C(=O)NCCOC)c1` [N,N′-Bis(2-methoxyethyl)pyridin-2,4-dicarbonsäurediamid]: the “Zeit bis der Serumspiegel ein nur noch leicht abfallendes Platteau erreichte” value is “ca. 5 Stunden” and the “enterale Resorbierbarkeit” value is reported as “gute Resorbierbarkeit”. In addition, for the setting “rat, po, 50 mg/kg”, the concentration at 0.25 h is 38700 ng/mL, the concentration at 0.5 h came to 32400 ng/mL, the concentration at 1 h is 15600 ng/mL and the concentration at 3 h stood at 700 ng/mL. Besides, under “rat, po, 50 mg/kg”, the concentration at 4 h worked out at 3300 ng/mL, the concentration at 5 h amounted to 500 ng/mL, the concentration at 6 h is 600 ng/mL and the concentration at 8 h worked out at 500 ng/mL. Where the note is “rat, po, 50 mg/kg”, the concentration at 14 h amounted to 300 ng/mL.
